Reference: patent publication US10669272B2, “Substituted naphthyridinone compounds useful as T cell activators” (BRISTOL-MYERS SQUIBB COMPANY, priority 2018, dated 2020)
pEC50, pIC50: −log10 of the molar value. Like-named read-outs stand apart in the source and are kept apart here.

Assays:
[1] = target: T1, human DGKα (Homo sapiens, UniProt P23743); test: DGKα LIPGLO assay (extruded liposome substrate), in vitro DGK inhibition; assay type: biochemical; settings: read-out: DGKa LIPGLO IC50
T1 construct: TVMV protease cleavage site (C); Hexa-His (C); made in house; host or cells: Sf9 insect cells (baculovirus, Bac-to-Bac)
T1 sequence (P23743 with tags, fused parts or gaps): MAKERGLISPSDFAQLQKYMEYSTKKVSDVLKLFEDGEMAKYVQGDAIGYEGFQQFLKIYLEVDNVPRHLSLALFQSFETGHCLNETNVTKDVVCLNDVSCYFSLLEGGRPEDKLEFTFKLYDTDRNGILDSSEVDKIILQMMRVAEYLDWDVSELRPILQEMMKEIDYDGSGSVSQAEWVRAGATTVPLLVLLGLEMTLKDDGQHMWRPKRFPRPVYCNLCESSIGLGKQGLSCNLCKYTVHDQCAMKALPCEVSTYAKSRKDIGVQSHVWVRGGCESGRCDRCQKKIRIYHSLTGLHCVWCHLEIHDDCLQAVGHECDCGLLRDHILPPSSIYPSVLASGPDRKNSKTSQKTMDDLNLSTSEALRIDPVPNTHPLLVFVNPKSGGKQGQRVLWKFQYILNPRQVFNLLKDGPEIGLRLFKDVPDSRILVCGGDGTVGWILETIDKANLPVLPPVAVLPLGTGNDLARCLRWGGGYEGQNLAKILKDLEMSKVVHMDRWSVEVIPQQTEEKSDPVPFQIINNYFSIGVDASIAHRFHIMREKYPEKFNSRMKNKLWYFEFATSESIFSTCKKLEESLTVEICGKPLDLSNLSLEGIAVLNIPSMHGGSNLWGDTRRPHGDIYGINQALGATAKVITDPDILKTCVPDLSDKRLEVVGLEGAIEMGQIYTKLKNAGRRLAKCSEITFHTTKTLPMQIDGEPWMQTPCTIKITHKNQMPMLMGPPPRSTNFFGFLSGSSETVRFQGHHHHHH

[2] = target: T2, human DGKζ (Homo sapiens, UniProt Q13574); test: DGKζ LIPGLO assay (extruded liposome substrate), in vitro DGK inhibition; assay type: biochemical; settings: read-out: DGKz LIPGLO IC50
T2 construct: TVMV protease cleavage site (C); Hexa-His (C); made in house; host or cells: Sf9 insect cells (baculovirus, Bac-to-Bac)
T2 sequence (Q13574 with tags, fused parts or gaps isoform Q13574-4): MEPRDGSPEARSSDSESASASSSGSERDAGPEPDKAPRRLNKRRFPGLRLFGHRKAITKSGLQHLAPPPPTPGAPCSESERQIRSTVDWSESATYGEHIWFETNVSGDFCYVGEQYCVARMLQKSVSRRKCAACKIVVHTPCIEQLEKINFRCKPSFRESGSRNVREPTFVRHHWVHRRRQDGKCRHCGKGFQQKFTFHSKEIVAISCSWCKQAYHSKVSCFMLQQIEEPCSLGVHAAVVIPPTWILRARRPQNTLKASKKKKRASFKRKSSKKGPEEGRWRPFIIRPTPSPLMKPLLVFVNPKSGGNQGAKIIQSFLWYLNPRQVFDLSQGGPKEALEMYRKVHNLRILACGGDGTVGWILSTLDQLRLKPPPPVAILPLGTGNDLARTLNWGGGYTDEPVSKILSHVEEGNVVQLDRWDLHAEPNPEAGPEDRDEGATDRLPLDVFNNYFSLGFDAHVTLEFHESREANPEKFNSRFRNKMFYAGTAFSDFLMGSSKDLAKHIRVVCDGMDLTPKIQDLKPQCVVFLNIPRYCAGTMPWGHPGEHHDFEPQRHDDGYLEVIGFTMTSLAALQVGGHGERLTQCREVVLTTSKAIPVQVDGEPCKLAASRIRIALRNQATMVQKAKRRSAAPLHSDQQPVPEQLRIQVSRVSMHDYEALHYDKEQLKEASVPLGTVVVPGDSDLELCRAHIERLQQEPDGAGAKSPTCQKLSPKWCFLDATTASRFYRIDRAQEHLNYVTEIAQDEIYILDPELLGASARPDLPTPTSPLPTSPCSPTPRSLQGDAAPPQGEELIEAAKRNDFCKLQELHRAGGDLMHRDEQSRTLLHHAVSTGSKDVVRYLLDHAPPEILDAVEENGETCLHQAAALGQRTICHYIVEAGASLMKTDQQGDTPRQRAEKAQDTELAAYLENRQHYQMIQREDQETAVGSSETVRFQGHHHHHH

[3] = test system: Human venous whole blood; test: Human whole blood IFN-γ assay; assay type: cell-based; settings: human whole blood, read-out: INFg Whole Blood Normalized Agonist EC50;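 further: blood from healthy donors exposed to compound for 1 h before stimulation with anti-CD3 and anti-CD28 at 1 µg/mL each, IFN-γ quantified in supernatant by AlphaLISA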
Protocol: Human Whole Blood IFN-γ Assay
Human venous whole blood (22.5 μL per well), obtained from healthy donors, was pre-treated with compounds for one hour at 37° C. in a humidified 95% air/5% CO2 incubator. The blood was stimulated with 2.5 μL anti-human CD3 and anti-CD28 mAb at a final concentration of 1 μg/mL each for 24 hours at 37° C. IFN-γ in the supernatants was measured using AlphLISA kit (Cat # AL217).

[4] = normalized to 3 μM reference compound with anti-CD3 plus anti-CD28 as 100% activation
[5] = Homo sapiens, 24 h, anti-CD3 plus anti-CD28, 24 hours, 3 μM reference compound = 100% activation
[6] = anti-CD3 plus anti-CD28, 24 hours, 3 μM reference compound = 100% activation
[7] = Homo sapiens, 24 h, normalized to 3 μM reference compound with anti-CD3 plus anti-CD28 as 100% activation

SMILES	pIC50 ([1]; liposome (LIPGLO) assay)	pIC50 ([2]; liposome (LIPGLO) assay)	pEC50 [3, 4]	pIC50 ([1]; DGKα liposome (LIPGLO) assay)	pIC50 ([2]; DGKζ liposome (LIPGLO) assay)	pEC50 [3, 5]	pEC50 [3, 6]	pEC50 [3, 7]
CCC(c1ccc(OC(F)(F)F)cc1F)N1C[C@H](C)N(c2cc(=O)n(C)c3ccc(C#N)nc23)C[C@H]1CC (single isomer, unassigned) [Example 420]	6.51	6.60	6.82	–	–	–	–	–
CCC(c1ccc(C2CC2)cc1F)N1C[C@H](CC)N(c2cc(=O)n(C)c3ccc(C#N)nc23)C[C@H]1CC (single isomer, unassigned) [Example 1359]	7.28	7.60	7.36	–	–	–	–	–
C[C@@H]1CN(c2cc(=O)n(C)c3ccc(C#N)nc23)[C@@H](C)CN1C(c1ccc(F)cc1)c1cnn(C2CC2)c1 (single isomer, unassigned) [Example 725]	–	–	–	6.26	6.31	5.82	–	–
Cc1ccc(C(C)N2C[C@H](C)N(c3c(C#N)c(=O)n(C)c4ccc(C#N)nc34)C[C@H]2C)cc1 (single isomer, unassigned) [Example 785]	–	–	–	6.16	< 3.60	–	5.19	–
C[C@@H]1CN(c2c(C#N)c(=O)n(C)c3ccc(C#N)nc23)CCN1C(c1ccc(F)cc1)c1cncn1C (single isomer, unassigned) [Example 1018]	–	–	–	4.09	4.13	4.70	–	–
C[C@@H]1CN(c2c(C#N)c(=O)n(C)c3ccc(C#N)nc23)[C@@H](C)CN1C(c1ccc(F)cc1)c1cscn1 (single isomer, unassigned) [Example 857]	–	–	–	6.00	5.72	5.85	–	–
Cc1ccc(C(c2ccc(C)c(Cl)c2)N2C[C@H](C)N(c3cc(=O)n(C)c4ccc(C#N)nc34)C[C@H]2C)nc1 (single isomer, unassigned) [Example 380]	5.51	5.80	6.20	–	–	–	–	–
CC[C@@H]1CN(c2cc(=O)n(C)c3ccc(C#N)nc23)[C@@H](C)CN1C(c1ccc(Cl)cc1)c1ccccn1 (single isomer, unassigned) [Example 422]	6.92	7.05	6.66	–	–	–	–	–
C[C@@H]1CN(c2c(C#N)c(=O)n(C)c3ccc(C#N)nc23)CCN1C(c1ccc(F)cc1)c1ccccc1F (stereo partly drawn) [Example 883]	–	–	–	5.82	6.08	–	6.08	–
C[C@@H]1CN(c2cc(=O)n(C)c3ccc(C#N)nc23)[C@@H](C)CN1C(c1ccc(F)cn1)c1ccc(F)cc1F (single isomer, unassigned) [Example 684]	8.16	6.31	6.46	–	–	–	–	–
CC[C@@H]1CN(c2cc(=O)n(C)c3ccc(C#N)nc23)[C@@H](C)CN1C(C)c1ccc(OC)cc1 (single isomer, unassigned) [Example 1350]	7.01	7.96	7.52	–	–	–	–	–
CC[C@@H]1CN(c2cc(=O)n(C)c3ccc(C#N)nc23)[C@@H](C)CN1C(C)c1ccc(C(F)(F)F)cc1 (single isomer, unassigned) [Example 1093]	6.60	6.74	–	–	–	–	–	6.89
C[C@@H]1CN(c2cc(=O)n(C)c3ccc(C#N)nc23)[C@@H](C)CN1C(c1ccc(F)cc1)c1nnc(C2CC2)[nH]1 (single isomer, unassigned) [Example 767]	–	–	–	6.36	5.18	–	5.64	–
CC[C@H]1CN(Cc2cc(F)c(F)c(F)c2)[C@H](C)CN1c1cc(=O)n(C)c2ccc(C#N)nc12 [Example 1149]	6.19	5.46	–	–	–	–	–	6.29
CCC(c1ccc(OC(F)(F)F)cc1F)N1C[C@H](C)N(c2cc(=O)n(C)c3ccc(C#N)nc23)C[C@H]1C (stereo partly drawn) [Example 438, 8-((2S,5R)-4-(1-(2-fluoro-4-(trifluoromethoxy)phenyl)propyl)-2,5-dimethylpiperazin-1-yl)-5-methyl-6-oxo-5,6-dihydro-1,5-naphthyridine-2-carbonitrile]	6.49	6.09	–	–	–	–	–	6.13
CC(c1ccc(F)cc1F)N1CCN(c2c(C#N)c(=O)n(C)c3ccc(C#N)nc23)C[C@H]1C (single isomer, unassigned) [Example 969]	–	–	–	6.12	5.92	–	5.89	–
C[C@@H]1CN(c2cc(=O)n(C)c3ccc(C#N)nc23)[C@@H](C)CN1C(c1ccc(F)cc1)c1cc(C(C)(C)C)on1 (single isomer, unassigned) [Example 732]	–	–	–	7.36	6.82	–	6.36	–
C[C@@H]1CN(c2c(C#N)c(=O)n(C)c3ccc(C#N)nc23)[C@@H](C)CN1C(c1cccc(F)c1)c1ccc(C(F)(F)F)cn1 (single isomer, unassigned) [Example 840]	–	–	–	4.66	5.55	–	6.09	–
C[C@@H]1CN(c2c(C#N)c(=O)n(C)c3ccc(C#N)nc23)CCN1Cc1ccc(F)c(F)c1 [Example 987]	–	–	–	5.54	5.74	5.14	–	–

SMILES	pIC50 ([1]; liposome (LIPGLO) assay)	pIC50 ([2]; liposome (LIPGLO) assay)	pEC50 [3, 4]	pIC50 ([1]; DGKα liposome (LIPGLO) assay)	pIC50 ([2]; DGKζ liposome (LIPGLO) assay)	pEC50 [3, 5]	pEC50 [3, 6]	pEC50 [3, 7]
Cc1ccnc(C(c2ccc(Cl)cc2)N2C[C@H](C)N(c3cc(=O)n(C)c4ccc(C#N)nc34)C[C@H]2C)c1 (single isomer, unassigned) [Example 448]	6.18	6.18	5.96	–	–	–	–	–
[2H]C(CC)(c1ccc(F)cc1)N1C[C@H](C)N(c2cc(=O)n(C)c3ccc(C#N)nc23)C[C@H]1C (single isomer, unassigned) [Example 574]	5.74	4.55	5.14	–	–	–	–	–
C[C@@H]1CN(c2cc(=O)n(C)c3ccc(C#N)nc23)[C@@H](C)CN1C(Cc1nc(C2CC2)no1)c1ccc(F)cc1 (single isomer, unassigned) [Example 1326]	5.92	6.33	5.77	–	–	–	–	–
Cc1ccc(C(c2ccc(Cl)cc2)N2CCN(c3c(C#N)c(=O)n(C)c4ccc(C#N)nc34)C[C@H]2C)cc1 (single isomer, unassigned) [Example 944]	–	–	–	4.43	4.39	–	5.17	–
Cn1c(=O)cc(N2CCN(Cc3ccc(F)cc3Cl)C(COC(F)F)C2)c2nc(C#N)ccc21 (single isomer, unassigned) [Example 1185, 8-(4-(2-chloro-4-fluorobenzyl)-3-((difluoromethoxy)methyl)piperazin-1-yl)-5-methyl-6-oxo-5,6-dihydro-1,5-naphthyridine-2-carbonitrile]	4.09	5.62	–	–	–	–	–	5.37
C[C@@H]1CN(c2cc(=O)n(C)c3ccc(C#N)nc23)[C@@H](C)CN1C(c1ccc(F)cc1)c1nc(C2CC2)cs1 (single isomer, unassigned) [Example 701]	6.68	7.49	7.30	–	–	–	–	–
C[C@@H]1CN(c2c(C#N)c(=O)n(C)c3ccc(C#N)nc23)CCN1C(c1ccc(F)cc1)c1cccc(C(F)(F)F)n1 (single isomer, unassigned) [Example 921]	–	–	–	4.64	5.51	–	5.82	–
CC[C@H]1CN(C(c2ccc(Cl)cc2)c2ccc(F)cn2)[C@H](C)CN1c1cc(=O)n(C)c2ccc(C#N)nc12 (single isomer, unassigned) [Example 1129]	6.96	5.74	–	–	–	–	–	6.39
C[C@@H]1CN(c2c(C#N)c(=O)n(C)c3ccc(C#N)nc23)[C@@H](C)CN1C(c1ccc(F)cc1)c1cccc(C(F)(F)F)n1 (single isomer, unassigned) [Example 845]	–	–	–	5.60	5.21	–	5.82	–
COC[C@@H]1CN(c2cc(=O)n(C)c3ccc(C#N)nc23)[C@@H](C)CN1C(c1ccc(F)cc1)c1nc(C2CC2)no1 (single isomer, unassigned) [Example 1394]	7.28	7.43	–	–	–	–	–	6.35
C[C@@H]1CN(c2c(C#N)c(=O)n(C)c3ccc(C#N)nc23)CCN1C(c1ccc(F)cc1)c1ccccn1 (single isomer, unassigned) [Example 919]	–	–	–	6.01	5.24	–	5.85	–
C[C@@H]1CN(c2c(C#N)c(=O)n(C)c3ccc(C#N)nc23)CCN1C(c1ccc(F)cc1)c1ccc(F)cc1F (stereo partly drawn) [Example 946]	–	–	–	6.23	6.14	6.17	–	–
Cc1ccc(C(c2cccc(Cl)c2)N2CCN(c3c(C#N)c(=O)n(C)c4ccc(C#N)nc34)C[C@H]2C)nc1 (single isomer, unassigned) [Example 929]	–	–	–	5.11	5.96	–	5.89	–
COc1cc(F)ccc1C(C)N1C[C@H](C)N(c2cc(=O)n(C)c3ccc(C#N)nc23)C[C@H]1C (single isomer, unassigned) [Example 1236]	4.96	7.37	5.89	–	–	–	–	–
CC(c1cccc(C(F)(F)F)n1)N1C[C@H](C)N(c2cc(=O)n(C)c3ccc(C#N)nc23)C[C@H]1C (single isomer, unassigned) [Example 636]	4.92	5.10	5.41	–	–	–	–	–
CC(c1cccc(OC(F)(F)F)c1)N1C[C@H](C)N(c2cc(=O)n(C)c3ccc(C#N)nc23)C[C@H]1C (single isomer, unassigned) [Example 1268]	5.68	6.00	–	–	–	–	–	5.28
CC[C@H]1CN(C(c2ccc(F)cc2)c2cscn2)[C@H](CC)CN1c1cc(=O)n(C)c2ccc(C#N)nc12 (single isomer, unassigned) [Example 1071]	7.85	7.36	6.72	–	–	–	–	–
CC[C@H]1CN(C(c2ccc(F)cc2)c2ccc(C#N)cc2)[C@H](C)CN1c1cc(=O)n(C)c2ccc(C#N)nc12 (stereo partly drawn) [Example 1123]	5.92	5.33	–	–	–	–	–	5.59
